Earlier results in patent US20230393151A1, “Precision Targeted Retromer Therapeutics for the Treatment of Neurodegenerative Diseases and Disorders” (The Trustees of Columbia University in the City of New York, priority 2020, published 2023).

How the values were obtained:
[1] = biological target: purified, reconstituted heterotrimeric complex (retromer) (Homo sapiens, UniProt Q96QK1+Q9UBQ0); details: incubated with complex at various concentrations; Mecozzi et al. 2014
VPS35 and VPS26 = biological target: T1, VPS35 and VPS26 (Mus musculus, UniProt Q9EQH3+Q9QZ88); details: cultured primary neurons; Mecozzi et al. 2014
T1 construct: endogenous in cells

- Thermal stability of retromer complex [1]: improved thermal stability significantly
- VPS35 and VPS26 protein levels (VPS35 and VPS26): increased
SMILES: [H]/N=C(\N)SCc1ccc(CS/C(N)=N/[H])s1 [R55]
